The values that follow come from BindingDB's records for doi:10.7270/Q2PR7TCX (The Scripps Research Institute Molecular Screening Center, 2007).

SMILES strings stand for the structures. Structures can show the parent of a compound that is named as a salt. Where only a bound is given, the exact number is not on record here.

Sequence of Steroidogenic factor 1 (Q13285 whole entry, the tested form may be a part): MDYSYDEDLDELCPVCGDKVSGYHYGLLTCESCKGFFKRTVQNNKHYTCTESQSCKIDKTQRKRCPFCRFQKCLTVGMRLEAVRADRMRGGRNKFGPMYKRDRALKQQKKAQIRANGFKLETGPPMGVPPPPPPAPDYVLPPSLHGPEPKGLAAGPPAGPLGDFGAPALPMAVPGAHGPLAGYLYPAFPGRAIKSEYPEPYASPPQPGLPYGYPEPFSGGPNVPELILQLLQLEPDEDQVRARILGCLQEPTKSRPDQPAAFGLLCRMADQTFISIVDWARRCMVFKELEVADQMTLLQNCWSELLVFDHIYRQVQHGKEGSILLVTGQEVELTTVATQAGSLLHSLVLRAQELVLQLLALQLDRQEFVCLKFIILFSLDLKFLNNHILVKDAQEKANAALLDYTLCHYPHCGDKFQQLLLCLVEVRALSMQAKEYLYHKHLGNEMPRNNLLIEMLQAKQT

One test has as its target Steroidogenic factor 1 (Homo sapiens, UniProt Q13285). Put plainly: SF-1 inhibitors in Gal4 reporter counter-screen, dose response, counter-screen for RORA inhibitor project, cell-based, CHO-K1, Gal4-SF-1 LBD, luciferase luminescence (AID 611).
Settings: not given
(In general: A counterscreen serves to expose hits that act by an unwanted route or on another target.)
Take `CC(C)OCCCNc1ncnc2c1[nH]c1ccc(F)cc12`: half-maximal inhibition (IC50) required 6.34 µM. `COc1ccc(-c2nc(CSCC(=O)NCc3ccco3)c(C)o2)cc1` [MLS000089353]: half-maximal inhibition (IC50) required 7.05 µM. The same measure, in the same setting: with `O=C1C(=CNc2ccc3c(c2)OCO3)CCc2ccccc21` [(2E)-2-[(1,3-benzodioxol-5-ylamino)methylene]tetralin-1-one] the figure was 3.32 µM. Still for that read-out and setting: in the case of `COc1ccccc1-c1nnc2sc(-c3ccc(N(C)C)cc3)nn12` [4-[3-(2-methoxyphenyl)-[1,2,4]triazolo[3,4-b][1,3,4]thiadiazol-6-yl]-N,N-dimethyl-aniline] it was 3.24 µM; in that of `CCOC(=O)N1CCN(C(=O)C2CCN(c3ncnc4c3sc3cccc(F)c34)CC2)CC1` [4-[1-(9-fluorobenzothiopheno[3,2-d]pyrimidin-4-yl)isonipecotoyl]piperazine-1-carboxylic acid ethyl ester], 6.51 µM. Turning to `Clc1ccc(-n2ncc3c(N4CCCCCC4)ncnc32)cc1` [4-(1-azepanyl)-1-(4-chlorophenyl)pyrazolo[3,4-d]pyrimidine], the IC50 (as a rule, the concentration that gives 50% inhibition) was 0.846 µM. On the same count and under the same terms, in the case of `CCCCS(=O)(=O)/C=C\C=C/S(=O)(=O)CCCC` [SMR000020833] it was 1.64 µM; in that of `COCCn1c(C)cc(C(=O)COC(=O)c2[nH]nc3ccccc23)c1C` [SMR000068187], 8.16 µM.

For `[H][C@@]12C[N@@](CCc3c([nH]c4ccccc34)[C@@](C(=O)OC)(c3cc4c(cc3OC)N(C=O)[C@]3([H])[C@]45CC[N@@]4CC=C[C@@](CC)([C@@H](OC(C)=O)[C@]3(O)C(=O)OC)[C@]45[H])C1)C[C@](O)(CC)C2`, the IC50 was found to be 2.11 µM. Still for that read-out and setting: with `CCOc1ccc(-c2cc(CCCC(=O)NCCc3ccc(OC)c(OC)c3OC)no2)cc1` [4-(5-p-phenetylisoxazol-3-yl)-N-[2-(2,3,4-trimethoxyphenyl)ethyl]butyramide] the figure was 6.37 µM; with `CCc1ccc(-c2nnn(CCC(=O)OC)n2)cc1`, 6.34 µM.

The molecule `c1ccc(-c2noc(-c3ccc4c(c3)OCO4)n2)nc1` [2-[5-(1,3-benzodioxol-5-yl)-1,2,4-oxadiazol-3-yl]pyridine] gave an IC50 of 1.26 µM. Same read-out and setting: with `COc1cc2nc(CN3CC=C(c4ccccc4)CC3)nc(O)c2cc1OC` [MLS000053305] the figure was 2.36 µM; with `CNC(=O)CCc1nc(-c2ccc(C(C)(C)C)cc2)no1` [3-[3-(4-tert-butylphenyl)-1,2,4-oxadiazol-5-yl]-N-methyl-propanamide], 0.075 µM; with `Cc1nnc(SC(=O)N2c3ccccc3Sc3ccccc32)s1` [10-phenothiazinecarbothioic acid S-(5-methyl-1,3,4-thiadiazol-2-yl) ester], 6.07 µM. On the same count and under the same terms, in the case of `COc1ccc(C(=O)NC(=O)Nc2cc(C)ccn2)cc1` [4-methoxy-N-[(4-methyl-2-pyridyl)carbamoyl]benzamide] it was 3.29 µM. Still for that read-out and setting: in the case of `Cc1csc(SCC(=O)c2cc(C)n(Cc3cccs3)c2C)n1` [1-[2,5-dimethyl-1-(2-thenyl)pyrrol-3-yl]-2-[(4-methylthiazol-2-yl)thio]ethanone] it was 9.88 µM.

As to `c1ccc(-n2ncc3c(N4CCCCC4)ncnc32)cc1` [1-phenyl-4-(1-piperidinyl)pyrazolo[3,4-d]pyrimidine], inhibition was half-maximal at 4.47 µM (IC50). Take `Cc1ccc(-c2noc(CCCC(=O)Nc3cccnc3)n2)cc1` [4-[3-(4-methylphenyl)-1,2,4-oxadiazol-5-yl]-N-(3-pyridinyl)butanamide]: half-maximal inhibition (IC50) was put at 8.03 µM. As to `Cc1ccc(C(=O)CC=Nc2ccccn2)cc1` [(E)-1-(4-methylphenyl)-3-(2-pyridinylamino)-2-propen-1-one], the IC50 came out at 1.49 µM. Molecule `O=C(NCCOc1ccccc1)c1ccc2c(c1)OCO2` [MLS000100028] displayed an IC50 of 9.86 µM. The same measure, in the same setting: with `O=C(Nc1nc2cc3c(cc2s1)OCO3)C1=COCCO1` [MLS000103798] the figure was 4.16 µM; with `COC(=O)C1C(=CN2CCCc3ccccc32)NC(=O)NC1c1ccc(F)cc1` (stereo not given) [6-(3,4-dihydro-2H-quinolin-1-ylmethyl)-4-(4-fluorophenyl)-2-keto-3,4-dihydro-1H-pyrimidine-5-carboxylic acid methyl ester], 6.66 µM. Same read-out and setting: in the case of `Cc1cc(C(=O)Nc2cccc(C(=O)O)c2)oc1C` [3-[(4,5-dimethyl-2-furoyl)amino]benzoic acid] it was 2.16 µM; in that of `Cc1ccc2nc(-c3ccccc3)cn2c1` [6-methyl-2-phenyl-imidazo[1,2-a]pyridine;hydrobromide], 1.93 µM; in that of `CC(C)(C)c1ccc(-c2noc(CCC(N)=O)n2)cc1` [3-[3-(4-tert-butylphenyl)-1,2,4-oxadiazol-5-yl]propanamide], 0.063 µM. On the same count and under the same terms, with `Nc1nc(Cl)nc2c1ncn2[C@H]1C[C@H](O)[C@@H](CO)O1` [2-CHLORO-2'-DEOXYADENOSINE] the figure was 0.666 µM. Take `O=C(CC=Nc1ccc2c(c1)OCO2)c1ccccn1` [(Z)-3-(1,3-benzodioxol-5-ylamino)-1-(2-pyridinyl)-2-propen-1-one]: the IC50 worked out at 1.5 µM. For `CC1CCCCC1NS(=O)(=O)c1ccc(S(=O)(=O)NCc2ccncc2)cc1` (stereo not given) [4-N-(2-methylcyclohexyl)-1-N-(pyridin-4-ylmethyl)benzene-1,4-disulfonamide], half-maximal inhibition (IC50) required 8.38 µM. On the same count and under the same terms, with `CCOc1ccc(OCc2cccc(C(=O)O)c2)cc1` [3-[(4-ethoxyphenoxy)methyl]benzoic acid] the figure was 0.274 µM; with `C[C@@]1(CO)[C@H](O)CC[C@@]2(C)[C@H]1CC[C@H]1C[C@@H]3C[C@@]12CC[C@]3(O)CO` [6,13-di(hydroxymethyl)-2,6-dimethyl-(1S,2S,5R,6R,7R,10S,12R,13R)-tetracyclo[10.3.1.01,10.02,7]hexadecane-5,13-diol (Aphidicolin)], 0.519 µM. Same read-out and setting: with `Oc1c(CN2CCN(c3ccccn3)CC2)cc(Cl)c2cccnc12` [5-chloranyl-7-[(4-pyridin-2-ylpiperazin-1-yl)methyl]quinolin-8-ol] the figure was 6.65 µM; with `O=C(NC1CC1)c1ccc(-c2nc3ccccc3s2)s1` [5-(1,3-benzothiazol-2-yl)-N-cyclopropyl-2-thiophenecarboxamide], 9.53 µM. For `COC(=O)c1ccc(-c2nc(-c3cccs3)no2)cc1` [4-(3-thiophen-2-yl-1,2,4-oxadiazol-5-yl)benzoic acid methyl ester], the IC50 is more than 3.67 µM. `Cc1cc(NC(=O)c2ccc3c(c2)OCCO3)no1` [MLS000064124]: 9.29 µM corresponded to half-maximal inhibition (IC50). Still for that read-out and setting: in the case of `O=C(OC1CCOC1=O)c1ccc(-c2nc3ccccc3s2)s1` (stereo not given) [(2-oxidanylideneoxolan-3-yl) 5-(1,3-benzothiazol-2-yl)thiophene-2-carboxylate] it was 5.18 µM; in that of `CCOc1ccc(S(=O)(=O)n2cnc3cc(C)c(C)cc32)cc1` [1-(4-Ethoxy-benzenesulfonyl)-5,6-dimethyl-1H-benzoimidazole], more than 11 µM; in that of `Cc1ccc(-c2csc(N3CCC(NS(=O)(=O)c4ccc5c(c4)OCCO5)CC3)n2)cc1` [N-[1-[4-(4-methylphenyl)-1,3-thiazol-2-yl]piperidin-4-yl]-2,3-dihydro-1,4-benzodioxine-6-sulfonamide], 5.97 µM. Still for that read-out and setting: in the case of `O=S1(=O)Nc2c(ccc3cccnc23)-c2ccccc21` [5H-quinolino[8,7-c][1,2]benzothiazine 6,6-dioxide] it was 4.43 µM. On the same count and under the same terms, in the case of `Cc1cc(C=Nn2cnnc2)c(C)n1-c1ccc(OCc2ccccc2F)cc1` [MLS000112180] it was 7.58 µM; in that of `CCNC(=O)CCc1nc(-c2ccc(C(C)(C)C)cc2)no1` [3-[3-(4-tert-butylphenyl)-1,2,4-oxadiazol-5-yl]-N-ethyl-propanamide], 0.0417 µM; in that of `CN(C)C(=O)CCc1nc(-c2ccc(C(C)(C)C)cc2)no1` [3-[3-(4-tert-butylphenyl)-1,2,4-oxadiazol-5-yl]-N,N-dimethyl-propanamide], 1.1 µM. Consider `Cn1c(-c2ccccc2)cc2c3no[n+]([O-])c3ccc21` [6-methyl-3-oxidanidyl-7-phenyl-pyrrolo[2,3-g][2,1,3]benzoxadiazol-3-ium], for which 6.06 µM corresponded to half-maximal inhibition (IC50).

Turning to `C[S+]([O-])c1nc(-c2ccc(Br)cc2)cc(-c2ccccc2)c1C#N` (stereo not given) [6-(4-bromophenyl)-2-(methylsulfinyl)-4-phenylnicotinonitrile], the IC50 amounted to 8.07 µM. On to `c1ccc(-c2cccc(-c3ccccn3)n2)nc1` [2,6-bis(2-pyridinyl)pyridine], for which the IC50 came to 2.81 µM. The same measure, in the same setting: in the case of `Cc1cc(C)cc(Nc2ccc(C(=O)O)cc2N)c1` [3-amino-4-(3,5-dimethylanilino)benzoic acid] it was more than 99 µM.

The test is the same for the next values; noted with them: inactive by the depositor's call.
In turn, `CCOC(=O)c1c(C)[nH]c(C(=O)C(C)OC(=O)c2cccc(OCc3c(C)noc3C)c2)c1C` (stereo not given) [MLS000054923] registered an IC50 of 10.6 µM.

Turning to `O=C(O)CCSc1nc2ccccc2s1` [3-(Benzothiazol-2-ylsulfanyl)-propionic acid], half-maximal inhibition (IC50) required 19.1 µM. Same read-out and setting: with `COc1ccc(CNc2cc(C)nc3ncnn23)c(OC)c1` [(2,4-Dimethoxy-benzyl)-(5-methyl-[1,2,4]triazolo[1,5-a]pyrimidin-7-yl)-amine] the figure was 23.4 µM; with `COc1ccc2[nH]c(=O)c3c(c2c1)OC(C)(C)C=C3`, 16.5 µM; with `COc1cc2c(cc1OC)C(C)N(C(=O)c1cc3ccccc3o1)CC2` (stereo not given) [1-benzofuran-2-yl-(6,7-dimethoxy-1-methyl-3,4-dihydro-1H-isoquinolin-2-yl)methanone], 19 µM. `Cc1cc(C)nc(SC2=CS(=O)(=O)c3ccccc32)n1` [2-[(1,1-dioxido-1-benzothien-3-yl)thio]-4,6-dimethylpyrimidine] registered an IC50 of 13 µM. In turn, `Cc1ccc2c(c1)nnn2C1CCN(S(=O)(=O)c2ccc(C(=O)N3C(C)CCCC3C)cc2)CC1` (stereo not given) [(2,6-Dimethyl-piperidin-1-yl)-{4-[4-(5-methyl-benzotriazol-1-yl)-piperidine-1-sulfonyl]-phenyl}-methanone] gave an IC50 of 10.6 µM. The molecule `CC1(C)CC(=O)C2=C(C1)Oc1nc3ccccc3cc1C2C(C#N)C#N` (stereo not given) [2-(1-keto-3,3-dimethyl-4,12-dihydro-2H-chromeno[2,3-b]quinolin-12-yl)malononitrile] registered an IC50 of 12.2 µM. On the same count and under the same terms, with `Nc1ccc2oc(-c3cc(Br)ccc3Cl)nc2c1` [2-(5-bromanyl-2-chloranyl-phenyl)-1,3-benzoxazol-5-amine] the figure was 66.2 µM.
